Like-named read-outs stand apart in the source and are kept apart here.
How the values were obtained:
[1] = test system: VCaP cells; assay: Cellular growth inhibition assay for VCaP cells (CellTiter-Glo, 72 hours); type: cell-based, human
Outline: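 Luminescent viability signal after 72 h of compound exposure gave GI50 values by four-parameter nonlinear regression. Compounds were added in 0.5% DMSO to cells plated 24 h earlier at 5000/well in DMEM containing 10% FBS.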

[2] = test system: T-Rex 293 cell line SC3 cells having increased expression of androgen receptor protein due to exposure to doxycycline; assay: Cellular growth inhibition assay, T-Rex 293 SC3 cells with doxycycline (CellTiter-Glo, 72 hours); type: cell-based; details: T-Rex 293 SC3 cells with increased androgen receptor expression due to doxycycline (10 ng/mL)
Outline: (§1)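 Growth inhibition is measured in an inducible AR-expressing T-Rex 293 clone, SC3, cultured with or without 10 ng/mL doxycycline in hormone-depleted medium. Test compounds are applied for 72 hours. GI50 values derive from CellTiter-Glo 2.0 signal fitted by four-parameter regression.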

[3] = test system: T-Rex 293 cell line SC3 cells lacking increased expression of androgen receptor protein; assay: Cellular growth inhibition assay, T-Rex 293 SC3 cells without doxycycline (CellTiter-Glo, 72 hours); type: cell-based; details: T-Rex 293 cell line SC3 cells not exposed to doxycycline (lacking increased androgen receptor expression)
Outline: as §1

GI50 [1] | GI50 ([1]; Homo sapiens, VCaP, 72 h) | SMILES | GI50 [2] | GI50 [3] | GI50 ([2]; 72 h) | GI50 ([3]; 72 h)
< 500 nM | – | Cc1sc2c(c1C)C(c1ccc(C3CCC4(CC3)CCN(c3ccc(C(=O)N[C@H]5CC[C@H](Oc6ccc(C#N)c(Cl)c6)CC5)nn3)C4)cc1)=NC1(CC1)c1nnc(C)n1-2 (stereo partly drawn) [I-518] | < 500 nM | > 3000 nM | – | –
– | < 500 nM | Cc1sc2c(c1C)C(c1ccc(C3CCC4(CCN(c5ccc(C(=O)N[C@H]6CC[C@H](Oc7ccc(C#N)c(Cl)c7)CC6)nn5)CC4)C3)cc1)=NC1(CC1)c1nnc(C)n1-2 (stereo partly drawn) [I-519] | – | – | < 500 nM | > 3000 nM
< 500 nM | – | Cc1sc2c(c1C)C(c1ccc(C3CCC4(CCN(c5ccc(C(=O)N[C@H]6CC[C@H](Oc7ccc(C#N)c(Cl)c7)CC6)nn5)CC4)C3)cc1)=NC1(CC1)c1nnc(C)n1-2 (stereo partly drawn) [I-520] | < 500 nM | > 3000 nM | – | –
1500 to 3000 nM | – | Cc1sc2c(c1C)C(c1ccc(N3CCC4(CCN(c5ccc(C(=O)N[C@H]6CC[C@H](Oc7ccc(C#N)c(Cl)c7)CC6)nn5)C4)C3)cc1)=NC1(CC1)c1nnc(C)n1-2 (stereo partly drawn) [I-521] | – | – | < 500 nM | < 500 nM
500 to 1500 nM | – | Cc1sc2c(c1C)C(c1ccc(N3CCC4(CCN(c5ccc(C(=O)N[C@H]6CC[C@H](Oc7ccc(C#N)c(Cl)c7)CC6)nn5)C4)C3)cc1)=NC1(CC1)c1nnc(C)n1-2 (stereo partly drawn) [I-522] | < 500 nM | < 500 nM | – | –
> 3000 nM | – | Cc1sc2c(c1C)C(c1ccc(OC3CCC4(CCCN(c5ccc(C(=O)N[C@H]6CC[C@H](Oc7ccc(C#N)c(Cl)c7)CC6)nn5)C4)C3)cc1)=NC1(CC1)c1nnc(C)n1-2 (stereo partly drawn) [I-523] | – | > 3000 nM | < 500 nM | –
> 3000 nM | – | Cc1sc2c(c1C)C(c1ccc(OC3CCC4(CCCN(c5ccc(C(=O)N[C@H]6CC[C@H](Oc7ccc(C#N)c(Cl)c7)CC6)nn5)C4)C3)cc1)=NC1(CC1)c1nnc(C)n1-2 (stereo partly drawn) [I-524] | < 500 nM | > 3000 nM | – | –
< 500 nM | – | Cc1sc2c(c1C)C(c1ccc(OC3CCC4(CCCN(c5ccc(C(=O)N[C@H]6CC[C@H](Oc7ccc(C#N)c(Cl)c7)CC6)nn5)C4)C3)cc1)=NC1(CC1)c1nnc(C)n1-2 (stereo partly drawn) [I-525] | < 500 nM | > 3000 nM | – | –
< 500 nM | – | Cc1sc2c(c1C)C(c1ccc(OC3CCC4(CCCN(c5ccc(C(=O)N[C@H]6CC[C@H](Oc7ccc(C#N)c(Cl)c7)CC6)nn5)C4)C3)cc1)=NC1(CC1)c1nnc(C)n1-2 (stereo partly drawn) [I-526] | < 500 nM | 500 to 1500 nM | – | –
– | 1500 to 3000 nM | Cc1sc2c(c1C)C(c1ccc(CC3CCC4(C3)CN(c3ccc(C(=O)N[C@H]5CC[C@H](Oc6ccc(C#N)c(Cl)c6)CC5)nn3)CCO4)cc1)=NC1(CC1)c1nnc(C)n1-2 (stereo partly drawn) [I-527] | – | – | < 500 nM | > 3000 nM
– | < 500 nM | Cc1sc2c(c1C)C(c1ccc(OC3CC(CC4CCN(c5ccc(C(=O)N[C@H]6CC[C@H](Oc7ccc(C#N)c(Cl)c7)CC6)nn5)CC4)C3)cc1)=NC1(CC1)c1nnc(C)n1-2 (stereo partly drawn) [I-528] | – | – | < 500 nM | > 3000 nM
< 500 nM | – | Cc1sc2c(c1C)C(c1ccc(OC3CC(CC4CCN(c5ccc(C(=O)N[C@H]6CC[C@H](Oc7ccc(C#N)c(Cl)c7)CC6)nn5)CC4)C3)cc1)=NC1(CC1)c1nnc(C)n1-2 (stereo partly drawn) [I-529] | < 500 nM | > 3000 nM | – | –
– | < 500 nM | Cc1sc2c(c1C)C(c1ccc(C3CCC4(CC3)CCN(c3ccc(C(=O)N[C@H]5CC[C@H](Oc6ccc(C#N)c(Cl)c6)CC5)nn3)CC4)cc1)=NC1(CC1)c1nnc(C)n1-2 [I-532] | – | – | < 500 nM | > 3000 nM
> 3000 nM | – | Cc1sc2c(c1C)C(c1ccc(OC3CCC4(CCCN(c5ccc(C(=O)N[C@H]6CC[C@H](Oc7ccc(C#N)c(Cl)c7)CC6)nn5)C4)C3)cc1)=N[C@@H](C)c1nnc(C)n1-2 (stereo partly drawn) [I-536] | – | – | < 500 nM | > 3000 nM
> 3000 nM | – | Cc1sc2c(c1C)C(c1ccc(OC3CCC4(CCCN(c5ccc(C(=O)N[C@H]6CC[C@H](Oc7ccc(C#N)c(Cl)c7)CC6)nn5)C4)C3)cc1)=N[C@@H](C)c1nnc(C)n1-2 (stereo partly drawn) [I-537] | < 500 nM | > 3000 nM | – | –
< 500 nM | – | Cc1sc2c(c1C)C(c1ccc(OC3CCC4(CCCN(c5ccc(C(=O)N[C@H]6CC[C@H](Oc7ccc(C#N)c(Cl)c7)CC6)nn5)C4)C3)cc1)=N[C@@H](C)c1nnc(C)n1-2 (stereo partly drawn) [I-538] | < 500 nM | > 3000 nM | – | –
500 to 1500 nM | – | Cc1sc2c(c1C)C(c1ccc(OC3CCC4(C3)CN(c3ccc(C(=O)N[C@H]5CC[C@H](Oc6ccc(C#N)c(Cl)c6)CC5)nn3)CCO4)cc1)=N[C@@H](C)c1nnc(C)n1-2 (stereo partly drawn) [I-539] | – | > 3000 nM | < 500 nM | –
1500 to 3000 nM | – | Cc1sc2c(c1C)C(c1ccc(OC3CCC4(C3)CN(c3ccc(C(=O)N[C@H]5CC[C@H](Oc6ccc(C#N)c(Cl)c6)CC5)nn3)CCO4)cc1)=N[C@@H](C)c1nnc(C)n1-2 (stereo partly drawn) [I-540] | < 500 nM | < 500 nM | – | –
> 3000 nM | – | Cc1sc2c(c1C)C(c1ccc(OC3CCC4(C3)CN(c3ccc(C(=O)N[C@H]5CC[C@H](Oc6ccc(C#N)c(Cl)c6)CC5)nn3)CCO4)cc1)=N[C@@H](C)c1nnc(C)n1-2 (stereo partly drawn) [I-541] | < 500 nM | < 500 nM | – | –
1500 to 3000 nM | – | Cc1sc2c(c1C)C(c1ccc(OC3CCC4(C3)CN(c3ccc(C(=O)N[C@H]5CC[C@H](Oc6ccc(C#N)c(Cl)c6)CC5)nn3)CCO4)cc1)=N[C@@H](C)c1nnc(C)n1-2 (stereo partly drawn) [I-542] | < 500 nM | < 500 nM | – | –

The next lines start with the molecule.

SMILES | GI50 [1] | GI50 ([1]; Homo sapiens, VCaP, 72 h) | GI50 [2] | GI50 [3] | GI50 ([2]; 72 h) | GI50 ([3]; 72 h)
CC[C@@H]1N=C(c2ccc(N3CCC4(CC3)CCN(c3ccc(C(=O)N[C@H]5CC[C@H](Oc6ccc(C#N)c(Cl)c6)CC5)nn3)C4)cc2)c2c(sc(C)c2C)-n2c(C)nnc21 [I-530] | – | > 3000 nM | – | – | < 500 nM | < 500 nM
CC[C@@H]1N=C(c2ccc(C#CC3CC4(C3)CN(c3ccc(C(=O)N[C@H]5CC[C@H](Oc6ccc(C#N)c(Cl)c6)CC5)nn3)C4)cc2)c2c(sc(C)c2C)-n2c(C)nnc21 [I-531] | – | < 500 nM | – | – | < 500 nM | < 500 nM
Cc1sc2c(c1C)C(c1ccc(C3CCC4(CC3)CCN(c3ccc(C(=O)N[C@H]5CC[C@H](Oc6ccc(C#N)c(Cl)c6)CC5)nn3)C4)nc1)=N[C@@H](C)c1nnc(C)n1-2 (stereo partly drawn) [I-533] | < 500 nM | – | – | – | < 500 nM | < 500 nM
Cc1sc2c(c1C)C(c1ccc(C3CCC4(CC3)CCN(c3ccc(C(=O)N[C@H]5CC[C@H](Oc6ccc(C#N)c(Cl)c6)CC5)nn3)C4)nc1)=N[C@@H](C)c1nnc(C)n1-2 (stereo partly drawn) [I-534] | > 3000 nM | – | < 500 nM | < 500 nM | – | –
Cc1sc2c(c1C)C(c1ccc(OC3CC(CC4CCN(c5ccc(C(=O)N[C@H]6CC[C@H](Oc7ccc(C#N)c(Cl)c7)CC6)nn5)CC4)C3)cc1)=N[C@@H](C)c1nnc(C)n1-2 (stereo partly drawn) [I-543] | – | < 500 nM | – | – | < 500 nM | > 3000 nM
Cc1sc2c(c1C)C(c1ccc(OC3CC(CC4CCN(c5ccc(C(=O)N[C@H]6CC[C@H](Oc7ccc(C#N)c(Cl)c7)CC6)nn5)CC4)C3)cc1)=N[C@@H](C)c1nnc(C)n1-2 (stereo partly drawn) [I-544] | < 500 nM | – | < 500 nM | > 3000 nM | – | –
Cc1sc2c(c1C)C(c1ccc(N3CC4(CC(C#Cc5ccc(C(=O)N[C@H]6CC[C@H](Oc7ccc(C#N)c(Cl)c7)CC6)nn5)C4)C3)cc1)=N[C@@H](Cc1ncco1)c1nnc(C)n1-2 [I-545] | – | < 500 nM | – | – | < 500 nM | < 500 nM
Cc1sc2c(c1C)C(c1ccc(C#CC3CCC(Cc4ccc(C(=O)N[C@H]5CC[C@H](Oc6ccc(C#N)c(Cl)c6)CC5)nn4)CC3)cc1)=N[C@@H](Cc1ncco1)c1nnc(C)n1-2 (stereo partly drawn) [I-546] | – | 500 to 1500 nM | – | – | < 500 nM | < 500 nM
Cc1sc2c(c1C)C(c1ccc(CCC3CC4(CCCN(c5ccc(C(=O)N[C@H]6CC[C@H](Oc7ccc(C#N)c(Cl)c7)CC6)nn5)C4)C3)cc1)=NCc1nnc(C)n1-2 (stereo partly drawn) [I-548] | – | 1500 to 3000 nM | – | – | < 500 nM | < 500 nM
Cc1sc2c(c1C)C(c1ccc(N3CCC4CN(c5ccc(C(=O)N[C@H]6CC[C@H](Oc7ccc(C#N)c(Cl)c7)CC6)nn5)CCC4C3)cc1)=NC1(CC1)c1nnc(C)n1-2 (stereo partly drawn) [I-549] | > 3000 nM | – | – | < 500 nM | < 500 nM | –
Cc1sc2c(c1C)C(c1ccc(N3CC(C4CCN(c5ccc(C(=O)N[C@H]6CC[C@H](Oc7ccc(C#N)c(Cl)c7)CC6)nn5)C4)C3)cc1)=NC1(CC1)c1nnc(C)n1-2 (stereo partly drawn) [I-550] | – | < 500 nM | – | < 500 nM | < 500 nM | –
Cc1sc2c(c1C)C(c1ccc(N3CC(C4CCN(c5ccc(C(=O)N[C@H]6CC[C@H](Oc7ccc(C#N)c(Cl)c7)CC6)nn5)C4)C3)cc1)=NC1(CC1)c1nnc(C)n1-2 (stereo partly drawn) [I-551] | < 500 nM | – | < 500 nM | > 3000 nM | – | –
Cc1sc2c(c1C)C(c1ccc(C3CN(C4CCN(c5ccc(C(=O)N[C@H]6CC[C@H](Oc7ccc(C#N)c(Cl)c7)CC6)nn5)CC4)C3)cc1)=NC1(CC1)c1nnc(C)n1-2 [I-552] | – | > 3000 nM | – | – | < 500 nM | 1500 to 3000 nM
Cc1sc2c(c1C)C(c1ccc(C3CCC4(CCN(c5ccc(C(=O)N[C@H]6CC[C@H](Oc7ccc(C#N)c(Cl)c7)CC6)nn5)CC4)C3)nc1)=N[C@@H](C)c1nnc(C)n1-2 (stereo partly drawn) [I-553] | < 500 nM | – | – | < 500 nM | < 500 nM | –
Cc1sc2c(c1C)C(c1ccc(N3CCC4CN(c5ccc(C(=O)N[C@H]6CC[C@H](Oc7ccc(C#N)c(Cl)c7)CC6)nn5)CCC4C3)cc1)=N[C@@H](C)c1nnc(C)n1-2 (stereo partly drawn) [I-554] | – | 500 to 1500 nM | – | > 3000 nM | < 500 nM | –
Cc1sc2c(c1C)C(c1ccc(N3CC(C4CCN(c5ccc(C(=O)N[C@H]6CC[C@H](Oc7ccc(C#N)c(Cl)c7)CC6)nn5)C4)C3)cc1)=N[C@@H](C)c1nnc(C)n1-2 (stereo partly drawn) [I-555] | – | < 500 nM | – | – | < 500 nM | < 500 nM
